{"source": "patent US20090214466A1", "about": "(priority 2006, published 2009)", "conditions_in_all_cases": "human, in vivo", "key": {"[1]": {"test_system": "migraine symptoms"}, "[2]": {"test_system": "migraine symptoms", "remark": "listed apart in the source"}, "[3]": {"test_system": "symptoms of post-laminectomy syndrome"}}}
{"substance": "botulinum toxin type A [BOTOX® botulinum toxin type A]", "values": [{"measurement": "frequency, severity, and duration of migraine symptoms", "setting": "[1]", "value": "Reduction in the frequency, severity, and duration of migraine symptoms was reported"}]}
{"substance": "etanercept [ENBREL® etanercept]", "values": [{"measurement": "frequency and severity of migraine symptoms", "setting": "[2]", "value": "Reduction in the frequency and severity of migraine symptoms was reported"}]}
{"substance": "infliximab [REMICADE® infliximab]", "values": [{"measurement": "symptoms of post-laminectomy syndrome", "setting": "[3]", "value": "reduced symptoms"}]}
